The target of the experiment is Histamine H1 receptor (Cavia porcellus, UniProt P31389).

Consider 2 compounds from BindingDB's records for doi:10.1111/j.1432-1033.1994.00489.x (Universit&Eacute, 1994).

Chain of Histamine H1 receptor (P31389 whole entry): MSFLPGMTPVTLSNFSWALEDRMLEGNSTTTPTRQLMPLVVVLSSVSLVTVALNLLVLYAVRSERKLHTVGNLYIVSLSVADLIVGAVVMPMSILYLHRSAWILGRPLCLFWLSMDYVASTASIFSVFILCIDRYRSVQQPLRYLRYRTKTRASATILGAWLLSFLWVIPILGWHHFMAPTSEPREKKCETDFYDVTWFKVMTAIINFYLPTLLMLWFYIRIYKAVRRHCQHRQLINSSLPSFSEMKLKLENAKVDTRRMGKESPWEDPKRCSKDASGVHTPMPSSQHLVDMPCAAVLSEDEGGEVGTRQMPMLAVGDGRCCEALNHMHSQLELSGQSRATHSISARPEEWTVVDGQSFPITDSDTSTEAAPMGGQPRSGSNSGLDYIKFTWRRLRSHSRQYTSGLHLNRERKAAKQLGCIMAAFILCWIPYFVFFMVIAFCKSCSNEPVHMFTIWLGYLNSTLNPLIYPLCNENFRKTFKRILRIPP

Usually Ki stands for the dissociation constant of the complex between target and ligand, obtained from inhibition or displacement. The low end stands for tighter binding, the high end for weaker binding. `Cc1ccc(/C(=C\CN2CCCC2)c2ccccn2)cc1` [Actahist] showed a Ki of 0.31 nM.

`O=C(O)COCCN1CCN(C(c2ccccc2)c2ccc(Cl)cc2)CC1` (configuration not stated): the Ki worked out at 12.6 nM. This Ki is about 41-fold higher than that of the compound before.
